Laboratory results taken from patent publication US20250115654A1, “PHARMACEUTICAL COMPOSITION OF GLP-1 RECEPTOR AND GIP RECEPTOR DUAL AGONIST, AND USE THEREOF” (FUJIAN SHENGDI PHARMACEUTICAL CO., LTD., priority 2021, published 2025).
Read-outs that look alike come from different tables or passages of the source. Numbered stars: 1 amine (or outer) side, 2 acyl side, 3 side chain; on linkers, the order of the positions; unused ones are H or OH. Square brackets hold non-standard residues; d marks the D form. Side chains are listed from the residue outwards. Peptide text beside a SMILES is read from it. * marks the point of attachment. C20 diacid = O=C(O)CCCCCCCCCCCCCCCCCCC(=O)*; γGlu = O=C(O)[C@H](CCC(=O)[*:2])N[*:1]; AEEA = NCCOCCOCC(=O)O; Aib = CC(C)(N)C(=O)O

Tests used:
human GIPR = biological target: T1, human GIPR (Homo sapiens, UniProt P48546); assay: Agonist activity against GIPR, cAMP HTRF in CHO-K1 cells transiently transfected with hGIP receptor; format: cell-based
T1 construct: expressed in transfected cells; host or cells: wild-type CHO-K1, transient transfection with hGIP receptor plasmid (Fugene HD)
T1 sequence (P48546 22-466): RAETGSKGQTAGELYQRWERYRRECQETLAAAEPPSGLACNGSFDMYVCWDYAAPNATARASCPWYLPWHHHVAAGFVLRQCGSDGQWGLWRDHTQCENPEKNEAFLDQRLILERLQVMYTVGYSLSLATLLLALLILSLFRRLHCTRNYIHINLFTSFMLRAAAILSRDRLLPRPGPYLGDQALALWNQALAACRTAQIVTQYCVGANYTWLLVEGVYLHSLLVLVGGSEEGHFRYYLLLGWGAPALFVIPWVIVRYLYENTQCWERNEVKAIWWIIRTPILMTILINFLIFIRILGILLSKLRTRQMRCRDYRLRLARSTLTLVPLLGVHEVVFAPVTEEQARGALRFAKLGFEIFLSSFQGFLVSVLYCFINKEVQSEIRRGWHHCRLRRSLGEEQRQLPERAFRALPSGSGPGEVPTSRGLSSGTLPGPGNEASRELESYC
Description: Wild-type CHO-K1 cells were collected, and the cell suspension was adjusted to an appropriate density, seeded in a 6-well plate at 2 mL/well, and placed in an incubator at 37° C. with 5% CO2 for adherence culture overnight.

human GLP-1R = human GLP-1R (Homo sapiens, UniProt P43220); assay: Agonist activity against GLP-1R, cAMP HTRF in CHO-K1/GLP-1R/CRE-luc stable cells
[1] = Stability of compounds in human plasma (LC-MS); format: in vitro ADME; details: human, read-out: Relative content of compounds retained in plasma (%)
Description: 5 μL of each of samples at concentrations of 20 ng/mL, 50 ng/mL, 100 ng/mL, 200 ng/mL, 500 ng/mL, 1000 ng/mL, 2000 ng/mL, 5000 ng/mL, and 10000 ng/mL was added to 45 L of human plasma. The content of the compounds in the samples was determined by the LC-MS method and a standard curve was formed. 5 μL of a 1 mg/mL polypeptide solution was added to 45 μL of human plasma. […] With the content at 0 min as the standard (100%), the relative content of the retained compounds in the samples at other time points was calculated.

[2] = Table 6 run, read-out: Activity against human GIPR (EC50 nM)

Sequence of human GLP-1R (P43220 24-463): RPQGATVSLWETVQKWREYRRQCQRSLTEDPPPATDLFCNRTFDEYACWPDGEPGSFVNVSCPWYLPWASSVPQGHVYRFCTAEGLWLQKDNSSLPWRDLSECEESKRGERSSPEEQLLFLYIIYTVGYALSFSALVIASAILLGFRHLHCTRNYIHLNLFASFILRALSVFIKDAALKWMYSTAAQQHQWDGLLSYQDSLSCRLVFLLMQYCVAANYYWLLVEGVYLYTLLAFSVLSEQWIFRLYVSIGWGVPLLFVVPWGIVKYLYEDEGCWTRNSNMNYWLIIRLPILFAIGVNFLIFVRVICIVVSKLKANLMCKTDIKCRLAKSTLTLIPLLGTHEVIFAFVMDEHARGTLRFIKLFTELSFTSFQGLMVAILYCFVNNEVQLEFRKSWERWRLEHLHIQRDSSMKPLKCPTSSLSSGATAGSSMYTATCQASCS

## CC[C@H](C)[C@H](NC(=O)[C@H](CCCCNC(=O)COCCOCCNC(=O)COCCOCCNC(=O)CC[C@H](NC(=O)CCCCCCCCCCCCCCCCCCC(=O)O)C(=O)O)NC(=O)[C@H](CCC(=O)O)NC(=O)[C@H](CC(C)C)NC(=O)[C@H](Cc1ccc(O)cc1)NC(=O)[C@@H](NC(=O)[C@H](CO)NC(=O)[C@H](Cc1ccc(O)cc1)NC(=O)[C@H](CC(=O)O)NC(=O)[C@H](CO)NC(=O)[C@@H](NC(=O)[C@H](Cc1ccccc1)NC(=O)[C@@H](NC(=O)CNC(=O)[C@H](CCC(=O)O)NC(=O)C(C)(C)NC(=O)[C@@H](N)Cc1ccc(O)cc1)[C@@H](C)O)[C@@H](C)O)[C@@H](C)CC)C(=O)N[C@@H](C)C(=O)N[C@@H](C)C(=O)N[C@@H](CCC(N)=O)C(=O)N[C@@H](CCC(=O)O)C(=O)N[C@@H](Cc1ccccc1)C(=O)N[C@H](C(=O)N[C@@H](CC(N)=O)C(=O)N[C@@H](Cc1c[nH]c2ccccc12)C(=O)N[C@@H](CC(C)C)C(=O)N[C@H](C(=O)N[C@@H](C)C(=O)NCC(=O)NCC(=O)N1CCC[C@H]1C(=O)N[C@@H](CO)C(=O)N[C@@H](CO)C(=O)NCC(=O)N[C@@H](C)C(=O)N1CCC[C@H]1C(=O)N1CCC[C@H]1C(=O)N1CCC[C@H]1C(=O)N[C@@H](CO)C(N)=O)[C@@H](C)CC)[C@@H](C)CC [Compound 10] (H-Y[Aib]EGTFTSDYSIYLEK([AEEA-AEEA-γGlu-C20 diacid])IAAQEFINWLIAGGPSSGAPPPS-NH2)
Human GIPR; [2]
  EC50: 0.056 nM

## CC[C@H](C)[C@H](NC(=O)[C@H](CCCNC(=N)N)NC(=O)[C@H](CCC(=O)O)NC(=O)[C@H](CCCCNC(=O)COCCOCCNC(=O)COCCOCCNC(=O)CC[C@H](NC(=O)CCCCCCCCCCCCCCCCCCC(=O)O)C(=O)O)NC(=O)[C@H](Cc1ccc(O)cc1)NC(=O)[C@@H](NC(=O)[C@H](CO)NC(=O)[C@H](Cc1ccc(O)cc1)NC(=O)[C@H](CC(=O)O)NC(=O)[C@H](CO)NC(=O)[C@@H](NC(=O)[C@H](Cc1ccccc1)NC(=O)[C@@H](NC(=O)CNC(=O)[C@H](CCC(=O)O)NC(=O)C(C)(C)NC(=O)[C@@H](N)Cc1ccc(O)cc1)[C@@H](C)O)[C@@H](C)O)[C@@H](C)CC)C(=O)N[C@@H](C)C(=O)N[C@@H](C)C(=O)N[C@@H](CCC(N)=O)C(=O)N[C@@H](CCC(=O)O)C(=O)N[C@@H](Cc1ccccc1)C(=O)N[C@H](C(=O)N[C@@H](CC(N)=O)C(=O)N[C@@H](Cc1c[nH]c2ccccc12)C(=O)N[C@@H](CC(C)C)C(=O)N[C@H](C(=O)N[C@@H](C)C(=O)NCC(=O)NCC(=O)N1CCC[C@H]1C(=O)N[C@@H](CO)C(=O)N[C@@H](CO)C(=O)NCC(=O)N[C@@H](C)C(=O)N1CCC[C@H]1C(=O)N1CCC[C@H]1C(=O)N1CCC[C@H]1C(=O)N[C@@H](CO)C(N)=O)[C@@H](C)CC)C(C)C [Compound 13] (H-Y[Aib]EGTFTSDYSIYK([AEEA-AEEA-γGlu-C20 diacid])ERIAAQEFVNWLIAGGPSSGAPPPS-NH2)
Human GIPR; [2]
  EC50: 0.13 nM

## CC[C@H](C)[C@H](NC(=O)[C@H](CCCCN)NC(=O)[C@H](CCC(=O)O)NC(=O)[C@H](CCCCNC(=O)COCCOCCNC(=O)COCCOCCNC(=O)CC[C@H](NC(=O)CCCCCCCCCCCCCCCCCCC(=O)O)C(=O)O)NC(=O)[C@H](Cc1ccc(O)cc1)NC(=O)[C@@H](NC(=O)[C@H](CO)NC(=O)[C@H](Cc1ccc(O)cc1)NC(=O)[C@H](CC(=O)O)NC(=O)[C@H](CO)NC(=O)[C@@H](NC(=O)[C@H](Cc1ccccc1)NC(=O)[C@@H](NC(=O)CNC(=O)[C@H](CCC(=O)O)NC(=O)C(C)(C)NC(=O)[C@@H](N)Cc1ccc(O)cc1)[C@@H](C)O)[C@@H](C)O)[C@@H](C)CC)C(=O)N[C@@H](C)C(=O)N[C@@H](C)C(=O)N[C@@H](CCC(N)=O)C(=O)N[C@@H](CCC(=O)O)C(=O)N[C@@H](Cc1ccccc1)C(=O)N[C@H](C(=O)N[C@@H](CC(N)=O)C(=O)N[C@@H](Cc1c[nH]c2ccccc12)C(=O)N[C@@H](CC(C)C)C(=O)N[C@H](C(=O)N[C@@H](C)C(=O)NCC(=O)NCC(=O)N1CCC[C@H]1C(=O)N[C@@H](CO)C(=O)N[C@@H](CO)C(=O)NCC(=O)N[C@@H](C)C(=O)N1CCC[C@H]1C(=O)N1CCC[C@H]1C(=O)N1CCC[C@H]1C(=O)N[C@@H](CO)C(N)=O)[C@@H](C)CC)[C@@H](C)CC [Compound 14] (H-Y[Aib]EGTFTSDYSIYK([AEEA-AEEA-γGlu-C20 diacid])EKIAAQEFINWLIAGGPSSGAPPPS-NH2)
Human GIPR; [2]
  EC50: 0.13 nM
Human GLP-1R
  EC50: 13 pM

## CC[C@H](C)[C@H](NC(=O)[C@H](CCCNC(=N)N)NC(=O)[C@H](CCC(=O)O)NC(=O)[C@H](CCCCNC(=O)COCCOCCNC(=O)COCCOCCNC(=O)CC[C@H](NC(=O)CCCCCCCCCCCCCCCCCCC(=O)O)C(=O)O)NC(=O)[C@H](Cc1ccc(O)cc1)NC(=O)[C@@H](NC(=O)[C@H](CO)NC(=O)[C@H](Cc1ccc(O)cc1)NC(=O)[C@H](CC(=O)O)NC(=O)[C@H](CO)NC(=O)[C@@H](NC(=O)[C@H](Cc1ccccc1)NC(=O)[C@@H](NC(=O)CNC(=O)[C@H](CCC(=O)O)NC(=O)C(C)(C)NC(=O)[C@@H](N)Cc1ccc(O)cc1)[C@@H](C)O)[C@@H](C)O)[C@@H](C)CC)C(=O)N[C@@H](C)C(=O)N[C@@H](C)C(=O)N[C@@H](CCC(N)=O)C(=O)N[C@@H](CCC(=O)O)C(=O)N[C@@H](Cc1ccccc1)C(=O)N[C@H](C(=O)N[C@@H](CC(N)=O)C(=O)N[C@@H](Cc1c[nH]c2ccccc12)C(=O)N[C@@H](CC(C)C)C(=O)N[C@@H](CC(C)C)C(=O)N[C@@H](C)C(=O)NCC(=O)NCC(=O)N1CCC[C@H]1C(=O)N[C@@H](CO)C(=O)N[C@@H](CO)C(=O)NCC(=O)N[C@@H](C)C(=O)N1CCC[C@H]1C(=O)N1CCC[C@H]1C(=O)N1CCC[C@H]1C(=O)N[C@@H](CO)C(N)=O)C(C)C [Compound 17] (H-Y[Aib]EGTFTSDYSIYK([AEEA-AEEA-γGlu-C20 diacid])ERIAAQEFVNWLLAGGPSSGAPPPS-NH2)
Human GIPR; [2]
  EC50: 0.11 nM

## CC[C@H](C)[C@H](NC(=O)[C@H](CC(C)C)NC(=O)[C@H](Cc1c[nH]c2ccccc12)NC(=O)[C@H](CCC(N)=O)NC(=O)[C@@H](NC(=O)[C@H](Cc1ccccc1)NC(=O)[C@H](C)NC(=O)[C@H](CCCCNC(=O)COCCOCCNC(=O)COCCOCCNC(=O)CC[C@H](NC(=O)CCCCCCCCCCCCCCCCCCC(=O)O)C(=O)O)NC(=O)[C@H](CCC(N)=O)NC(=O)[C@H](C)NC(=O)[C@@H](NC(=O)[C@H](CCCCN)NC(=O)[C@H](CC(=O)O)NC(=O)[C@H](CC(C)C)NC(=O)C(C)(C)NC(=O)[C@@H](NC(=O)[C@H](CO)NC(=O)[C@H](Cc1ccc(O)cc1)NC(=O)[C@H](CC(=O)O)NC(=O)[C@H](CO)NC(=O)[C@@H](NC(=O)[C@H](Cc1ccccc1)NC(=O)[C@@H](NC(=O)CNC(=O)[C@H](CCC(=O)O)NC(=O)C(C)(C)NC(=O)[C@@H](N)Cc1ccc(O)cc1)[C@@H](C)O)[C@@H](C)O)[C@@H](C)CC)[C@@H](C)CC)C(C)C)C(=O)N[C@@H](C)C(=O)NCC(=O)NCC(=O)N1CCC[C@H]1C(=O)N[C@@H](CO)C(=O)N[C@@H](CO)C(=O)NCC(=O)N[C@@H](C)C(=O)N1CCC[C@H]1C(=O)N1CCC[C@H]1C(=O)N1CCC[C@H]1C(=O)N[C@@H](CO)C(N)=O [LY3298176, reference compound]
Human GIPR
  EC50: 0.031 nM
[1]; 60 min
  remaining at 1 h, 0.1 mg/mL: 115%
[1]; 120 min
  remaining at 2 h, 0.1 mg/mL: 118%
[1]; 240 min
  remaining at 4 h, 0.1 mg/mL: 113%
